{"source": "patent US7217827B2", "about": "“Halogen-containing aromatic compound” (Nippon Shokubai Co., Ltd., priority 2001, dated 2007)", "assay": "Solubility to dimethylacetoamide at 25° C., solution then left standing for a night", "conditions": "for solubility to dimethylacetoamide: at 25° C.; for precipitation from the dimethylacetoamide solution on standing: solution left standing for a night"}
{"smiles": "O=C1OC(=O)c2c(F)c(Oc3c(Cl)c(Cl)c(Oc4c(F)c(F)c5c(c4F)C(=O)OC5=O)c(Cl)c3Cl)c(F)c(F)c21", "note": "[Example 1, 1,4-bis(3,4-dicarboxytrifluorophenoxy)tetrachlorobenzene dianhydride]", "values": [{"measurement": "solubility to dimethylacetoamide", "value": 22, "unit": "wt. %"}, {"measurement": "precipitation from the dimethylacetoamide solution on standing", "value": "precipitations were not found"}]}
{"smiles": "Nc1c(F)c(N)c(F)c(Cl)c1F", "note": "[Example III-1, 5-chloro-2,4,6-trifluoro-m-phenylenediamine]", "values": [{"measurement": "solubility to dimethylacetoamide", "value": 68, "unit": "wt. %"}, {"measurement": "precipitation from the dimethylacetoamide solution on standing", "value": "precipitations were not found"}]}
